Values quoted from earlier work, collected in patent publication US11167065B2 (EUROCOR TECH GMBH, priority 2009, dated 2021).
Read-outs that look alike come from different tables or passages of the source.

Solubility (in dimethyl sulfoxide (DMSO), methanol, anhydrous ethanol): highly soluble | Solubility (in water): comparatively poorly soluble
SMILES: CC(=O)O[C@H]1C(=O)[C@@]2(C)[C@H]([C@H](OC(=O)c3ccccc3)[C@]3(O)C[C@H](OC(=O)[C@H](O)[C@@H](NC(=O)c4ccccc4)c4ccccc4)C(C)=C1C3(C)C)[C@]1(OC(C)=O)CO[C@@H]1C[C@@H]2O (relative stereo) [Paclitaxel, [2aR-[2a,4,4a,6,9(R*,S*),11,12,12a,12b]]-(benzoylamino)-hydroxybenzene propionic acid 6,12b-bis-(acetyloxy)-12-(benzoyloxy)-2a-3,4,4a, 5,6,9, 10, 11, 12, 12a, 12b-dodecahydro-4,11-dihydroxy-4a,8,13,13-tetramethyl-5-oxo-7,11-methano-1H-cyclodeca[3,4]benz[1,2-b]oxet-9-yl ester)]
